The record followed here is ChEMBL document CHEMBL3994632, “Selenoesters and selenoanhydrides as novel multidrug resistance reversing agents: A confirmation study in a colon cancer MDR cell line” (Bioorg Med Chem Lett, 2017).

Usually IC50 stands for the concentration at which inhibition is half-maximal.

SMILES strings stand for the structures. Where only a bound is given, the exact number is not on record here.

One data set has as its system MRC5. The experiment in a line: Cytotoxicity against human MRC5 cells after 24 hrs by MTT assay. It is filed as ADME, cell-based. The note with it: MRC5, 24 h. (Formazan colour is commonly taken as a measure of viable cells.)
Data set [1] is described as follows: Selectivity index, ratio of IC50 for human MRC5 cells to IC50 for doxorubicin-sensitive human COLO205 cells. It counts as functional.
Another data set relates to COLO 205. The experiment in a line: Cytotoxicity against doxorubicin-sensitive human COLO205 cells after 24 hrs by MTT assay. It is filed as functional, cell-based. The note with it: COLO 205, 24 h.
Data set [2] can be described thus: Selectivity index, ratio of IC50 for human MRC5 cells to IC50 for multidrug resistant human COLO320 cells. It is filed as functional.
The test system of data set [3] is COLO 320. The experiment in a line: Induction of apoptosis in human COLO320 cells at 2 uM after 24 hrs by Annexin V-FITC/propidium iodide staining based flow cytometry relative to M627. It is filed as functional. (In flow cytometry, cells or beads pass a laser one at a time.)
In data set [4] the test system is COLO 320. The experiment in a line: Cytotoxicity against multidrug resistant human COLO320 cells after 24 hrs by MTT assay. It is filed as functional, cell-based. As to conditions: COLO 320, 24 h.
The nature of data set [5]: Selectivity index, ratio of IC50 for doxorubicin-sensitive human COLO205 cells to IC50 for multidrug resistant human COLO320 cells. It is filed as functional.
Data set [6] addresses ATP-dependent translocase ABCB1 (Homo sapiens, UniProt P08183). The data set can be described thus: Inhibition of human MDR1 transfected in mouse T lymphoma cells assessed as rhodamine-123 accumulation measured as fluorescence activity ratio quotient at 2 uM preincubated for 10 mins followed by rhodamine-123 addition measured after 20 mins by flow cytometry relative to verapamil. It is filed as cell-based. Details: scale not given: the % may be the effect or the level left.

The subject of data set [7] is COLO 320. The experiment in a line: Induction of apoptosis in human COLO320 cells assessed as cell death at 20 uM after 24 hrs by Annexin V-FITC/propidium iodide staining based flow cytometry (reference value: 4.75%). It is filed as functional.
The test system of data set [8] is COLO 320. The experiment in a line: Induction of apoptosis in human COLO320 cells assessed as early apoptotic cells at 20 uM after 24 hrs by Annexin V-FITC/propidium iodide staining based flow cytometry (reference value: 20.3%). It is filed as functional.
Data set [9] concerns COLO 320. The experiment in a line: Induction of apoptosis in human COLO320 cells assessed as late apoptotic/necrotic cells at 20 uM after 24 hrs by Annexin V-FITC/propidium iodide staining based flow cytometry (reference value: 9.93%). It counts as functional.

Sequence of ATP-dependent translocase ABCB1 (P08183 whole entry): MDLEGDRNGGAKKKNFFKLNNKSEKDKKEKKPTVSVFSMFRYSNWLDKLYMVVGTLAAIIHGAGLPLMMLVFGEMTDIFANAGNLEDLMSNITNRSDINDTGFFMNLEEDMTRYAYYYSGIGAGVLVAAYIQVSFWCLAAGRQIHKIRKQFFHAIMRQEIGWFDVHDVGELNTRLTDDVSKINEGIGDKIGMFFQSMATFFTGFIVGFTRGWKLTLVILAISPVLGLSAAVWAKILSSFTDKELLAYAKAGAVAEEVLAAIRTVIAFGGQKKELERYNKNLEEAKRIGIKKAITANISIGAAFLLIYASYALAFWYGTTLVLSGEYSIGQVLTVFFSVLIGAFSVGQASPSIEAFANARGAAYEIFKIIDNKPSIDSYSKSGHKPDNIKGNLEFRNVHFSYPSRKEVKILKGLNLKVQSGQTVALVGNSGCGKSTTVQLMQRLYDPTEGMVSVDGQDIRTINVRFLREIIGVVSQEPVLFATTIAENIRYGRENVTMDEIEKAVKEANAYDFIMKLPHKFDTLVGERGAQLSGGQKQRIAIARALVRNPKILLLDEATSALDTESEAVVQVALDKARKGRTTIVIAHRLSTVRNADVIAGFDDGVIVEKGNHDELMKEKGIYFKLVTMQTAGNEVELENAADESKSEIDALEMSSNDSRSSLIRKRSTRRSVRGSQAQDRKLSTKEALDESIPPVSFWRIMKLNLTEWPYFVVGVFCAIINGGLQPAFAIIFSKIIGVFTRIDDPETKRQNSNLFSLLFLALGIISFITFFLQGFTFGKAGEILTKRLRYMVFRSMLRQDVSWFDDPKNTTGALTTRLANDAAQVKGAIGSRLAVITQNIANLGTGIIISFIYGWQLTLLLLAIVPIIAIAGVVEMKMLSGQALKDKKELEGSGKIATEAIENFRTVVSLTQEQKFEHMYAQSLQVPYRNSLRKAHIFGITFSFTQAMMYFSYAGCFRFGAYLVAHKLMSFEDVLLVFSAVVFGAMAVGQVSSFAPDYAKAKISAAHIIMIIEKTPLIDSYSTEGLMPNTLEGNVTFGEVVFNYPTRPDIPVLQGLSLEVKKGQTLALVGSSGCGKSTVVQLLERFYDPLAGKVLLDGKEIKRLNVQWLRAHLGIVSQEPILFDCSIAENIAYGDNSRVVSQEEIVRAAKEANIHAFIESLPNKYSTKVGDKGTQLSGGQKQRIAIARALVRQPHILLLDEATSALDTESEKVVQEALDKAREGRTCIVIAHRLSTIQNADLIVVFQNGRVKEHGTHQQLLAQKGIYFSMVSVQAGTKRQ

For the compound `NC(=O)C[Se]C(=O)c1ccccc1`, the half-maximal inhibitory concentration (IC50) was 76.6 µM with MRC5, more than 100 µM in the data set on COLO 205 and more than 100 µM in the data set with COLO 320 [4]. In addition, the “Ratio IC50” value in data set [1] and in [2] was “<=0.77” in each case. This compound also displayed an Activity with COLO 320 [3] of 37.3%.
With `O=C1[Se]C(=O)c2ccccc21`, the IC50 is more than 100 µM with MRC5, more than 100 µM with COLO 205 and 63.9 µM in the data set with COLO 320 [4]. Also, the “Ratio IC50” value in data set [2] and in [5] was “>=1.6” in each case. Further, the Activity with COLO 320 [3] amounted to 88.4%.
On to `COC(=O)C[Se]C(=O)c1ccc(Cl)cc1`, for which the IC50 with MRC5 was 33.4 µM; in the data set on COLO 205, more than 100 µM; in the data set with COLO 320 [4], more than 100 µM. Besides, the “Ratio IC50” value in [1] and in data set [2] was “<=0.33” in each case. Besides, the Activity with COLO 320 [3] was determined as 43.4%.
With `O=C(C[Se]C(=O)c1ccccc1)Oc1ccccc1`, the IC50 is more than 100 µM in the data set with MRC5, more than 100 µM in the data set on COLO 205 and 53.7 µM in the data set on COLO 320 [4]. Also, the “Ratio IC50” value in data set [2] and in data set [5] was “>=1.9” each time. For the same compound, the Activity with COLO 320 [3] is given as 43%.
Take `CC(=O)C[Se]C(=O)c1ccc(Cl)cc1`: the results for the IC50 in the data set with MRC5, in the data set with COLO 205 and in the data set with COLO 320 [4] were 5.35 µM, 5.48 µM and 0.55 µM, respectively. The results for the “Ratio IC50” value in data set [1], in [2] and in [5] were 0.98, 9.7 and 10, respectively. The compound further returned an Activity in the data set on COLO 320 [3] of 87.7%.
Take `CC(C)(C)C(=O)C[Se]C(=O)c1ccc(Cl)cc1`: the IC50 in the data set with MRC5 came to 8.1 µM; in the data set with COLO 205, 1.63 µM; in the data set on COLO 320 [4] it was 0.96 µM. The “Ratio IC50” value in data set [1] is recorded as 5; in data set [2], 8.4; in data set [5] it was 1.7. For the same compound, the Activity in [6] was 34 to 217%; in the data set on COLO 320 [3] it was 80.3%.
Regarding `COc1cc(OC)cc(C(=O)[Se]CC(=O)C(C)(C)C)c1`, the figures for the IC50 with MRC5, in the data set with COLO 205 and in the data set on COLO 320 [4] were 5.04 µM, 1.19 µM and 0.35 µM, respectively. For the same compound, the “Ratio IC50” value came to 4.2 in [1], 14.4 in [2] and 3.4 in data set [5]. The Activity in [6] is 46 to 228%; with COLO 320 [3], 88.7%.
Regarding `C[Se]C(=O)c1ccc(C(=O)[Se]C)cc1`, the IC50 was 61.5 µM in the data set on MRC5, more than 100 µM in the data set with COLO 205 and more than 100 µM in the data set on COLO 320 [4]. For the same compound, the “Ratio IC50” value in data set [1] and in data set [2] was “<=0.62” each time. Besides, the Activity with COLO 320 [3] stood at 36.9%.
Take `C[Se]C(=O)c1cccc(C(=O)[Se]C)c1`: the results for the half-maximal inhibitory concentration (IC50) in the data set with MRC5, in the data set on COLO 205 and with COLO 320 [4] were 28.4 µM, more than 100 µM and 12.5 µM, respectively. Moreover, the “Ratio IC50” value in data set [1] is reported as “<=0.28”; in [2] it was 2.3; in data set [5], “>=8”. For the same compound, the Activity in the data set with COLO 320 [3] is listed as 36.3%.
For the compound `C[Se]C(=O)c1cccc(C(=O)[Se]C)n1`, the IC50 in the data set on MRC5 is 17.9 µM; with COLO 205, more than 100 µM; with COLO 320 [4] it was more than 100 µM. For the same compound, the “Ratio IC50” value in data set [1] and in data set [2] was “<=0.18” in each case. In addition, in the data set on COLO 320 [3], the Activity was found to be 36.9%.
For the compound `C[Se]C(=O)c1ccc(C(=O)[Se]C)s1`, the results for the concentration for half-maximal inhibition (IC50) with MRC5, in the data set on COLO 205 and in the data set on COLO 320 [4] were 4.26 µM, more than 100 µM and more than 100 µM, respectively. The “Ratio IC50” value in [1] and in data set [2] was “<=0.04” in each case. In addition, in the data set on COLO 320 [3], the Activity is on record as 30.4%.
`N.N#CS`: the IC50 in the data set on MRC5, with COLO 205 and with COLO 320 [4] was more than 100 µM each time. The compound further came in with an Activity in the data set with COLO 320 [3] of 9.55%.
For `c1ccc2c(c1)Nc1c(ccc3ccccc13)S2`, the Activity in the data set with COLO 320 [7] is reported as 2.91%; with COLO 320 [8], 58.5%; in the data set on COLO 320 [9] it was 22%.
As for `N#C[O-].[K+]`, the IC50 in the data set with MRC5, with COLO 205 and in the data set with COLO 320 [4] was more than 100 µM each time. In the data set with COLO 320 [3], this compound yielded an Activity of 7.28%.
With `N#C[Se-].[K+]`, the half-maximal inhibitory concentration (IC50) with MRC5, in the data set on COLO 205 and in the data set with COLO 320 [4] was more than 100 µM in each case. In the data set with COLO 320 [3], this compound had an Activity of 6.98%.
As for `O=C1OC(=O)c2ccccc21` [PHTHALIC ANHYDRIDE], the IC50 in the data set on MRC5, in the data set on COLO 205 and in the data set on COLO 320 [4] was more than 100 µM throughout. The Activity in the data set with COLO 320 [3] is 6.06%.
